Reference: US11535597B2, “Photoreactive ligands and uses thereof” (The Scripps Research Institute, priority 2017, dated 2022)
“Also recorded” adds a separate entry of the source.

Assays:
PPARγ = target: T1, PPARγ (Homo sapiens, UniProt P37231); test: GAL4-PPARγ luciferase reporter assay with empty control vector in HEK293T cells; assay type: cell-based; settings: GAL4-PPARγ luciferase reporter and empty control vector
T1 construct: expressed in transfected cells; host or cells: HEK293T
T1 sequence (P37231 238-503 limits assumed): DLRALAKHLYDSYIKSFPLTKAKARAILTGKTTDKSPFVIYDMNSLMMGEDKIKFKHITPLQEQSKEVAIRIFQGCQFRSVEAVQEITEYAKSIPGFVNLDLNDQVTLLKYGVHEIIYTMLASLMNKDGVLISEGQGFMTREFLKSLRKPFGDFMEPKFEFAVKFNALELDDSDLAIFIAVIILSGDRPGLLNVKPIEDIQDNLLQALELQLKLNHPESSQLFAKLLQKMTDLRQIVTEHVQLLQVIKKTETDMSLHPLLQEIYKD
Description: (§1) HEK293T cells were transiently co-transfected using Polyethylenimine (Sigma) with a UAS-Luciferase reporter and a vector expressing the heterologous GAL4 DNA binding domain (DBD) or a GAL4 DNA binding domain::PPARγ ligand binding domain (LBD) chimeric protein, and full-length PTGR2. 24 hr after transfection, cells were treated either with vehicle (DMSO), 15k-PGE2 (20 μM), or fragment compounds. Rosiglitazone (2 μM), a synthetic PPARγ ligand, was used as control. 16 hr after incubation, cells were lysed in Cell Culture Lysis Reagent (Promega) and luciferase activity measured using the Luciferase Assay System (Promega).

PTGR2 [1] = target: T2, PTGR2 (Homo sapiens, UniProt Q8N8N7); test: PPARγ luciferase reporter assay in PTGR2-transfected HEK293T cells (15-keto-PGE2-dependent); assay type: cell-based; settings: cells recombinantly expressing PTGR2
T2 sequence (Q8N8N7 whole entry): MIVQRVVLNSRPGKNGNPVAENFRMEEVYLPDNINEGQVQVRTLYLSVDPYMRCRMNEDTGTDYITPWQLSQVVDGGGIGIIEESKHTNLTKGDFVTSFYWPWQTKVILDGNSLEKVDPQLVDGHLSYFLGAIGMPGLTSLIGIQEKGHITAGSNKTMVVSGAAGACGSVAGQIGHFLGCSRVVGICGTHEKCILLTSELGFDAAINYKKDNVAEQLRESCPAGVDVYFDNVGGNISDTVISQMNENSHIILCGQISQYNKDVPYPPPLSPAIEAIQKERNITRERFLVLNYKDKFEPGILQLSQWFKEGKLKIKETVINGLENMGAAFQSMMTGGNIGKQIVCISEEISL
Description: as §1

PTGR2 [2] = target: T2, PTGR2; test: In vitro LCMS-based activity assay for PTGR2 (15-keto-PGE2 reductase activity); assay type: biochemical
Description: Aliquots (1 μL) of test compounds dissolved in DMSO were transferred to 1.5 mL eppendorf tubes followed by addition of recombinant human PTGR2 (44 μL, 200 nM final concentration) in freshly prepared reaction buffer (Tris Buffer, 1 mM EDTA, 50 μM TCEP, 300 μM NADPH). The resulting mixture was vortexed and then incubated at 37° C. for 20 min. Next, a 5 μL solution of 15-keto-PGE2 substrate (20 μM final concentration) in reaction buffer was added and the reaction was allowed to proceed for 30 min at 37° C. Reactions were quenched by the addition of 0.5% AcOH in ethyl acetate (800 μL), water (300 μL) and 100 μL of internal standard PGE2-d4 (30 pmol/sample) dissolved in 1:1 methanol/water. Phases were separated by centrifugation and the organic layer was collected and dried under a stream of N2, then stored at −80° C. until analysis. Directly prior to analysis, samples were reconstituted in 100 μL of MeCN:H2O (1:1, v/v) and analyzed by LC/MS/MS. All conditions were performed in triplicate and repeated at least three independent times.
The following MS parameters were used to measure the indicated metabolites by MRM (precursor ion, product ion, collision energy, polarity): PGE2-d4 (355, 275, 18), 13,14-dihydro-15-keto-PGE2 (351, 333, 18) and 15-keto-PGE2 (349, 161, 20). 15-keto-PGE2 and 13,14-dihydro-15-keto-PGE2 levels were quantified by determining peak areas in relation to internal standard PGE2-d4. Non-deuterated 15-keto-PGE2 and 13,14-dihydro-15-keto-PGE2 standards were used to confirm retention time and fragmentation.
All data fitting and statistical analysis performed using GraphPad Prism version 6.00 for Windows, GraphPad Software, La Jolla Calif. USA, www.graphpad.com. Statistical values including the exact n and statistical significance are also reported. Probe binding blockade and PTGR2 inhibition curves are plotted as mean±SD (n=3 or 4 per group) for a representative biological replicate using a variable slope (four parameter) non-linear fit. Gene expression data are presented as mean±SD (n=3 per group). HSC5 metabolite data are shown as mean±SD (n=3 per group). Statistical significance was defined as P<0.05 and determined by 2-tailed Student t tests, or two-way ANOVA with Bonferroni's post-tests.

COc1ccccc1N1CCN(C(=O)Cc2ccccc2)CC1 [Compound 22, 1-(4-(2-Methoxyphenyl)piperazin-1-yl)-2-phenylethan-1-one]
direct modulation of PPARγ transcriptional activity (PPARγ): do not directly induce; also recorded: Neither 22 nor 23 directly modulated
15-keto-PGE2-dependent PPARγ transcriptional activity (PTGR2 [1]): increased; also recorded: concentration-dependent rescue
effect on 15-keto-PGE2 reductase (catalytic) activity of recombinant PTGR2 (PTGR2 [2]): inhibited
increased potency relative to 20 (PTGR2 [2]; in assays measuring either competition of 8-labeling or 15-keto-PGE2 reductase activity of recombinant PTGR2): > 20 fold
IC50 (PTGR2 [2]; recombinant PTGR2, read-out: IC50 for inhibition of PTGR2-mediated reduction of 15-keto-PGE2 (15-keto-PGE2 reductase activity)): 600 nM
